We go through seven compounds from ChEMBL document CHEMBL2311518 (J Med Chem, 2013).

In experiment [1] the target is Neuronal acetylcholine receptor; alpha4/beta4 (Rattus norvegicus, UniProt P09483+P12392). Briefly: biochemical.
Description: Displacement of [3H]epibatidine from rat recombinant alpha4beta4 nAChR expressed in HEK293 cells after 4 hrs by scintillation counting analysis
Experiment [2] deals with T1, Neuronal acetylcholine receptor; alpha3/beta4 (Rattus norvegicus, UniProt P04757+P12392). Briefly: biochemical.
Description: Displacement of [3H]epibatidine from rat recombinant alpha3beta4 nAChR expressed in HEK293 cells after 4 hrs by scintillation counting analysis
The target of experiment [3] is Neuronal acetylcholine receptor; alpha4/beta2 (Rattus norvegicus, UniProt P09483+P12390). The experiment can be described thus: biochemical.
Chain of Neuronal acetylcholine receptor; alpha4/beta2 (Rattus norvegicus, UniProt P09483+P12390) (P09483 whole entry): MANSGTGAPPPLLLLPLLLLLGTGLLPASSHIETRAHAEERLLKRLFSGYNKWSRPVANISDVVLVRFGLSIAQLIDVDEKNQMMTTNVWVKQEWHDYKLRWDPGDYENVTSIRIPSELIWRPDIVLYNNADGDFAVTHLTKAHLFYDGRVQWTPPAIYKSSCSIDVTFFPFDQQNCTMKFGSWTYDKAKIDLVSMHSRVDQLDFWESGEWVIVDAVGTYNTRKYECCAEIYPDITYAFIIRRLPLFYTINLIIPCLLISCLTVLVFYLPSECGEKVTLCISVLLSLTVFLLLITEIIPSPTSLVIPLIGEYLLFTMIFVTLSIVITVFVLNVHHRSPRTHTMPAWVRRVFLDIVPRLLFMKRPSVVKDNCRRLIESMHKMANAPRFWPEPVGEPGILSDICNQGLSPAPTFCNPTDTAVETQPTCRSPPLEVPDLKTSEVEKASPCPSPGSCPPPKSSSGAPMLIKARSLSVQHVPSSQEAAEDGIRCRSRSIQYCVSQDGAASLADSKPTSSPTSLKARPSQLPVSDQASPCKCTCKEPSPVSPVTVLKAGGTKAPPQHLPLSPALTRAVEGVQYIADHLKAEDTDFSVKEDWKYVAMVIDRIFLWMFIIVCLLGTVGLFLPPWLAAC
Chain of Neuronal acetylcholine receptor; alpha4/beta2 (Rattus norvegicus, UniProt P09483+P12390) (P12390 whole entry): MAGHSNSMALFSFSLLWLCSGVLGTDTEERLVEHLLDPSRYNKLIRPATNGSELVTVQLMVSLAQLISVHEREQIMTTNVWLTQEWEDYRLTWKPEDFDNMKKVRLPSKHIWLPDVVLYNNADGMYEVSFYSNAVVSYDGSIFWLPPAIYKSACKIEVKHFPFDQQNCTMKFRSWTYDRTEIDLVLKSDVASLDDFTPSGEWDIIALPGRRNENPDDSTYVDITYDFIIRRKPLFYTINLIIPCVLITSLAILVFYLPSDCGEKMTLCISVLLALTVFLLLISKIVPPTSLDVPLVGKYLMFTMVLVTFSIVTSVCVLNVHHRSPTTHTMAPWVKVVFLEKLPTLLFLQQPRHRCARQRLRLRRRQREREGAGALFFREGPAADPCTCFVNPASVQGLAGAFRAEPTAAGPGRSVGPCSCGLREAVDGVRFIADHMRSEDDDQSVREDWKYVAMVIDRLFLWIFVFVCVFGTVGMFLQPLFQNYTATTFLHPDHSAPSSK
Description: Displacement of [3H]epibatidine from rat recombinant alpha4beta2 nAChR expressed in HEK293 cells after 4 hrs by scintillation counting analysis
Experiment [4] has as its target T1, Neuronal acetylcholine receptor; alpha3/beta4.
Description: Agonist activity at rat alpha3beta4 nAChR expressed in HEK293 cells after 30 mins by FLIPR membrane potential blue assay
Experiment [5] addresses T2, Neuronal acetylcholine receptor; alpha4/beta2 (Homo sapiens, UniProt P17787+P43681).
Description: Agonist activity at human 3:2 alpha4beta2 nAChR expressed in Xenopus laevis oocytes after 1 min by two electrode voltage clamp technique
Experiment [6] concerns the target T2, Neuronal acetylcholine receptor; alpha4/beta2. This is another data set of the same source.
Description: Partial agonist activity at human 2:3 alpha4beta2 nAChR expressed in Xenopus laevis oocytes after 1 min by two electrode voltage clamp technique
Experiment [7] concerns the target Neuronal acetylcholine receptor subunit alpha-7 (Rattus norvegicus, UniProt Q05941). As to conditions: tsa-201.
Description: Displacement of [3H]MLA from rat nAChR alpha7 linked to ion channel portion of 5-HT3A receptor expressed in human tsA-201 cells after 2.5 hrs by scintillation counting analysis
Experiment [8] addresses Acetylcholine-binding protein (Lymnaea stagnalis, UniProt P58154). Particulars: hek293.
Description: Displacement of [3H]epibatidine from Lymnaea stagnalis AChBP linked to ion channel portion of 5-HT3A receptor expressed in HEK293 cells after 4 hrs by scintillation counting analysis
Experiment [9] has as its target Neuronal acetylcholine receptor; alpha3/beta4 (Rattus norvegicus) (UniProt P04757+P12392). Briefly: Modulation of rat alpha3beta4 nAChR expressed in HEK293 cells up to 1000 uM after 30 mins by FLIPR membrane potential blue assay. In kind it is cell-based.

“And” between values parts separate entries of the source, which are not always exact repeats. Equal entries are not always repeated. The source made the active and inactive calls. The calls are words filed in the database; no cut-off is given here.

T2 sequence (P17787 whole entry): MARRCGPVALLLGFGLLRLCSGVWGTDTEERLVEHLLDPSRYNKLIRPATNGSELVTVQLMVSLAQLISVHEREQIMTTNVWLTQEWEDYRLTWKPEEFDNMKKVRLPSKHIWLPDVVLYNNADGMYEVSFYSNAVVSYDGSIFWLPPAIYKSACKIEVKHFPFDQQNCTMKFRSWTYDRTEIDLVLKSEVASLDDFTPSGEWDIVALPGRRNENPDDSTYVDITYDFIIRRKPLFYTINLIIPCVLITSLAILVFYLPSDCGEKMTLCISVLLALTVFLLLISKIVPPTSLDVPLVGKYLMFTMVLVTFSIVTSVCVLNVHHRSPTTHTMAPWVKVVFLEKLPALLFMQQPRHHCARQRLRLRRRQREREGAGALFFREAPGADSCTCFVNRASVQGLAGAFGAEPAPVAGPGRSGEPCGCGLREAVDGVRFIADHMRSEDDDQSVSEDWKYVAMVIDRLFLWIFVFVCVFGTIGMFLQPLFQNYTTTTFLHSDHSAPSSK
T2 sequence (P43681 whole entry): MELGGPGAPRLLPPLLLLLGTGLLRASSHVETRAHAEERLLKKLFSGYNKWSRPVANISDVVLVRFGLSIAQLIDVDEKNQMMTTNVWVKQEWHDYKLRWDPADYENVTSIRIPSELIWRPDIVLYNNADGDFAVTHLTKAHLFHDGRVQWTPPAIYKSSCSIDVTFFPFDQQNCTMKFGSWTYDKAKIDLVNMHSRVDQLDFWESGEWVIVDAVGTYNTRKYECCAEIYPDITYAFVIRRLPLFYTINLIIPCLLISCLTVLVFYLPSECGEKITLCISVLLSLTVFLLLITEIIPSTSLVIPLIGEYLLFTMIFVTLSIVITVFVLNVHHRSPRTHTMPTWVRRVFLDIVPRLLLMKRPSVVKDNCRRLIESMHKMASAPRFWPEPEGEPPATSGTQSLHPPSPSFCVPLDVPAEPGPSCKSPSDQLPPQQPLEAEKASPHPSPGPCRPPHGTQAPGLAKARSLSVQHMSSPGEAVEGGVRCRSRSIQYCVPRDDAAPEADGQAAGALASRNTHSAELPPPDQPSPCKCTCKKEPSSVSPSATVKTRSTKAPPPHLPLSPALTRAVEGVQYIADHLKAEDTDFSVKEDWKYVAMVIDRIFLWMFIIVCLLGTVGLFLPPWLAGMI
Chain of Neuronal acetylcholine receptor; alpha4/beta4 (P09483 whole entry): as the sequence (P09483 whole entry) above
Chain of Neuronal acetylcholine receptor; alpha4/beta4 (P12392 whole entry): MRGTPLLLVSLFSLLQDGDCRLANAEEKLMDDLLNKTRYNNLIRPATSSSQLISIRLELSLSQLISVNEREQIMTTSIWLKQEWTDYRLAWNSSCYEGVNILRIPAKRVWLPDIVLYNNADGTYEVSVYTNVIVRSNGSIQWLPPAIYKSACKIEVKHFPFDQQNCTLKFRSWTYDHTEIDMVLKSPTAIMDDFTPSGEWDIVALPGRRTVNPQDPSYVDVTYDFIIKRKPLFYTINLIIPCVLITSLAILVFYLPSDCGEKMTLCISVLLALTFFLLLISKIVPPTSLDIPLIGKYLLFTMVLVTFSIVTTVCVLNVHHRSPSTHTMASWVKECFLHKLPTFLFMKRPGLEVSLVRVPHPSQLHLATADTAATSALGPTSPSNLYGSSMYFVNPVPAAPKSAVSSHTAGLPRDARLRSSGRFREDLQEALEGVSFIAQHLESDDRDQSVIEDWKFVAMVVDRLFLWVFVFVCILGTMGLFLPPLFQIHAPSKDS
T1 sequence (P04757 whole entry): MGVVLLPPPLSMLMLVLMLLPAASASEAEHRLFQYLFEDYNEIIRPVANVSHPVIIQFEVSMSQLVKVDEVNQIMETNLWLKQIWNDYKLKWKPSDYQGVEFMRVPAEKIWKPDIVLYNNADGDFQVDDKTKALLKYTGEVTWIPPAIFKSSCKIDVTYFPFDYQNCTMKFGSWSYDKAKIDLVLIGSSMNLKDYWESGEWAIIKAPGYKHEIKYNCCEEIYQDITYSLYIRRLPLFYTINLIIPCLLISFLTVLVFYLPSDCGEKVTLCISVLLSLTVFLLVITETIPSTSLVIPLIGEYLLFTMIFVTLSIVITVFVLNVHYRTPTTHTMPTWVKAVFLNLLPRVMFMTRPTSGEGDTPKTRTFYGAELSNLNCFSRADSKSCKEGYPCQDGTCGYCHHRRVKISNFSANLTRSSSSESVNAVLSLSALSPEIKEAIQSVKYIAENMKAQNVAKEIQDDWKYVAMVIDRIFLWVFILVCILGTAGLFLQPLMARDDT
T1 sequence (P12392 whole entry): as the sequence (P12392 whole entry) above
Chain of Acetylcholine-binding protein (P58154 20-229 limits assumed): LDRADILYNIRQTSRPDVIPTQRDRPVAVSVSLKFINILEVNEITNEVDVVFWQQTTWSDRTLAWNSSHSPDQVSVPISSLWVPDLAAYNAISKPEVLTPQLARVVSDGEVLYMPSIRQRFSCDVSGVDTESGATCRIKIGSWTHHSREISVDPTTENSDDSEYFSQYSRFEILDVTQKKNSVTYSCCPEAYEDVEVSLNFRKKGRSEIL
Chain of Neuronal acetylcholine receptor subunit alpha-7 (Q05941 23-502 limits assumed): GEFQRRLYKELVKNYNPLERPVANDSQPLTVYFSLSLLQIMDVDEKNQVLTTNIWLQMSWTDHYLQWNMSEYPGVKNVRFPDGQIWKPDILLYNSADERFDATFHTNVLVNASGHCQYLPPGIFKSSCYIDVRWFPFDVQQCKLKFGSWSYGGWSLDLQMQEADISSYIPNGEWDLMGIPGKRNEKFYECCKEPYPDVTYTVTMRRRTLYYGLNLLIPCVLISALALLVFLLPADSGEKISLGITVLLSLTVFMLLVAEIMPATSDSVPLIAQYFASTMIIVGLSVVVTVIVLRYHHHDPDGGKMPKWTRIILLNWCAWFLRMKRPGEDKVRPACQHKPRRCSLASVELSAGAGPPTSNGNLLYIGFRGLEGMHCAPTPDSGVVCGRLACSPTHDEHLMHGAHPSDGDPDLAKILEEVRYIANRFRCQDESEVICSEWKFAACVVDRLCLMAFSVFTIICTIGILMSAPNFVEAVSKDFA

The term Ki denotes a measure of affinity in units of concentration, obtained from inhibition or displacement. A higher Ki goes with a looser hold on the target. On to `C[C@H](CCOn1cccn1)N(C)C`, for which the Ki came out at 11 µM in [1], 8.1 µM in experiment [2] and 18 nM in experiment [3].

For the compound `C[C@H](CCOc1nccs1)N(C)C`, the inhibition constant (Ki) in experiment [1] is 1.8 µM; in experiment [2] it was 4.7 µM; in experiment [3], 13 nM.

Consider `C[C@H](CCOc1cccnc1)N(C)C`, for which the Ki stood at 8.3 µM in experiment [1], 4.9 µM in experiment [2] and 30 nM in [3].

As usually defined, the EC50 is the midpoint of the concentration-response curve. Low readings indicate higher potency in that assay, high ones lower potency in that assay. What is called pKi is the negative decadic logarithm of the Ki, by convention in mol/L. High values mean a small Ki, low ones a large Ki. For `C[C@H](CCOC(=O)N(C)C)N(C)C`, the EC50 in [4] is 11 µM; in experiment [5], 15.8 µM and 14 µM; in experiment [6] it was 0.72 µM. Further, the Ki in experiment [7] is above 1 mM; in experiment [8] it was 79 nM; in experiment [1] it was 0.15 µM; in [2], 0.42 µM; in experiment [3] it was 20 nM. Moreover, the pKi in [7] is reported as below 3; in [8], 7.1.

Take `C[C@H](CCOc1nc(Br)cn1C)N(C)C`: the Ki in experiment [7] worked out at 1 mM; in experiment [1], 50 µM; in experiment [2], 300 µM; in experiment [3], 120 nM. In experiment [7], this compound registered a pKi of 3.

As for `C[C@H](CCOc1cnccn1)N(C)C`, the Ki was 8.3 µM in experiment [1], 42 µM in experiment [2] and 240 nM in experiment [3].

Consider `Cc1cn(C)c(OCC[C@@H](C)N(C)C)n1`, for which the outcome in experiment [9] was inactive. Further, the EC50 worked out at 34 µM in [5] and 19 µM in experiment [6]. The Ki was above 1 mM in experiment [7]; 1500 nM in experiment [8]; 50 µM in experiment [1]; 24 µM in [2]; 280 nM in experiment [3]. Moreover, the pKi is given as below 3 in experiment [7] and 5.82 in [8].
